Common to all, as to experiment: NCI-60 cell line screen, 48 h
The subject of assay [1] is MDA-MB-435.
Assay [2] relates to BT-549.
Assay [3] deals with UACC-62.
For assay [4], the system named is HT-29.
The subject of assay [5] is SK-OV-3.
The subject of assay [6] is SF-295.
Assay [7] relates to SF-268.
Assay [8] concerns KM12.
Assay [9] relates to DU-145.
The subject of assay [10] is A549.
Assay [11] has as its system PC-3.
Assay [12] deals with HCT-15.
Assay [13] concerns LOX IMVI.
Assay [14] deals with 786-0.
In assay [15] the test system is OVCAR-4.
The subject of assay [16] is OVCAR-5.

Each structure is given as a SMILES string.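 Method: 48-hour compound exposure of cells in 96-well plates, five concentrations, linear interpolation of endpoints. GI50 marks 50% less growth.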 The source made the active and inactive calls. Rule as the data show it: active = GI50 up to about 1.1 µM and inactive = higher. *1 amine or outer side, *2 acyl side, *3 side chain or, on linkers, in order; H or OH if unused. Where a SMILES comes first, the peptide text is derived from it. [ ]: non-standard residue; d: D form. The star is where a group is joined. ξ: configuration not given here. X43 = CCC(=O)CC(O)CC(C)CC(N[*:1])C(=O)[*:2]; ξLeu(3ξ-OH) = CC(C)C(O)C(N)C(=O)O; ξPro(4ξ-Me) = CC1CNC(C(=O)O)C1; X42 = CCC(C)/C=C/C(=O)*; Aib = CC(C)(N)C(=O)O; X44 = CC(CN(C)C)N*; βAla = NCCC(=O)O

Five molecules from ChEMBL document CHEMBL1201862, “PubChem BioAssay data set” (2004) can be followed below.

`O=C(O)CCN1C(=S)CSC1=S`: the GI50 in [1], in assay [2], in assay [3], in [4], in assay [5] and in assay [6] was > 100 µM (inactive) in each case. Besides, the GI50 was > 100 µM (inactive) in [7]; > 100 µM (inactive) in assay [8]; > 100 µM (inactive) in [9]; > 100 µM (inactive) in assay [10]; > 100 µM (inactive) in assay [11]; greater than 100 µM in [12]. Also, the GI50 in assay [13] is 94.4 µM (inactive); in assay [14], > 100 µM (inactive); in [15], > 100 µM (inactive); in [16] it was > 100 µM (inactive).
For `O=S1(=O)N=C(SCc2c[nH]c3ccccc23)N(c2ccccc2)c2ccncc21`, the GI50 in assay [1] is > 100 µM (inactive); in [2], 59 µM (inactive); in assay [3] it was > 100 µM (inactive); in [4], > 100 µM (inactive); in assay [5] it was > 100 µM (inactive); in [6], > 100 µM (inactive). Also, the GI50 is 50.9 µM (inactive) in assay [7]; > 100 µM (inactive) in [8]; 35.2 µM (inactive) in assay [9]; > 100 µM (inactive) in [10]; 66.7 µM (inactive) in [11]; greater than 100 µM in assay [12]. Moreover, the GI50 was 35.4 µM (inactive) in [13], 25.1 µM (inactive) in assay [14], > 100 µM (inactive) in [15] and 94.2 µM (inactive) in assay [16].
For the molecule `CCC(=O)CC(O)CC(C)CC(NC(=O)C1CC(C)CN1C(=O)/C=C/C(C)CC)C(=O)NC(C(=O)NC(C)(C)C(=O)NC(CC(C)C)C(=O)NC(CC(C)C)C(=O)NC(C)(C)C(=O)NC(C)(C)C(=O)NCCC(=O)NC(C)CN(C)C)C(O)C(C)C` (stereo not given) (X42-[ξPro(4ξ-Me)][X43][ξLeu(3ξ-OH)][Aib]LL[Aib][Aib][βAla]-X44; configuration not given here), the GI50 in [1] was 0.0745 µM (active); in assay [2], 0.29 µM (active); in [3], 0.268 µM (active); in assay [4], 0.0728 µM (active); in [5] it was 0.341 µM (active); in [6], 0.0255 µM (active). Further, the GI50 in assay [7] was 0.0526 µM (active); in assay [8], 0.0412 µM (active); in [9], 0.351 µM (active); in [10], < 0.005 µM (active); in assay [11] it was 0.00632 µM (active); in assay [12] it was 5.4 µM. Besides, the GI50 is 0.199 µM (active) in assay [13], 1.52 µM (inactive) in [14], 0.0361 µM (active) in assay [15] and 0.313 µM (active) in assay [16].
Regarding `CCOC(=O)C1(C#N)C(C#N)(C#N)C1(C#N)C#N`, the GI50 in assay [1], in assay [2], in [3], in [4], in assay [5] and in assay [6] was > 100 µM (inactive) in each case. In addition, the GI50 is > 100 µM (inactive) in assay [7]; > 100 µM (inactive) in assay [8]; > 100 µM (inactive) in [9]; > 100 µM (inactive) in assay [10]; > 100 µM (inactive) in assay [11]; greater than 100 µM in assay [12]. Besides, the GI50 in assay [13], in assay [14], in assay [15] and in [16] was > 100 µM (inactive) each time.
Regarding `C[N+]12C=CC=C1C(N1CCCC1)c1sc(-c3ccc(Cl)cc3)cc12` (stereo not given), the GI50 is 15.7 µM (inactive) in assay [1]; 10.3 µM (inactive) in assay [2]; 15.1 µM (inactive) in [3]; 17.4 µM (inactive) in assay [4]; 18.7 µM (inactive) in assay [5]; 20.3 µM (inactive) in assay [6]. The GI50 in assay [7] was 17.1 µM (inactive); in assay [8] it was 17 µM (inactive); in assay [9] it was 16.9 µM (inactive); in assay [10], 28.6 µM (inactive); in assay [11], 16.3 µM (inactive); in assay [12], 30.5 µM. Moreover, the GI50 in [13] is 16 µM (inactive); in assay [14], 15.4 µM (inactive); in assay [15], 18.2 µM (inactive); in assay [16], 19.2 µM (inactive).
